Measured values: patent publication US12599603B2, “Methods of treatment” (INTRA-CELLULAR THERAPIES, INC., priority 2019, dated 2026)

Legend:
[1] = test system: tumor-infiltrating immune cells of CT26 tumors; assay: FACS of tumor-infiltrating immune cells in CT26 tumors (Example 2); assay type: in vivo, BALB/c mice; conditions: FACS of tumors excised at day 17-18
Method: (§1) BALB/c mice were subcutaneously injected with CT26 cells at day 0 and then divided into four groups at day 7: (1) Compound 1 treatment, (50 mg/kg, i.p. qd), 5 days/week; (2) Isotype group, ip mlgG isotype at days 7, 10 and 14; (3) Anti-PD-1 group, administered i.p. at days 7, 10 and 14; and (4) Combination group, treated with Compound 1 and anti-PD-1 as group 1 and group 3. Tumor volumes were measured every 2 or 3 days. At day 17-18, tumors were excised, dissected, and used to make single cell suspensions. These tumor single cell suspensions were incubated with FC blocker (eBioscience) and then stained with antibodies on ice in the dark. Samples were acquired on a FACSCalibur, LSRII or LSRII yellow (BD Biosciences), and analyzed with FlowJo (Tree Star).

[2] = test system: CT26 xenograft tumors; assay: Growth of CT26 xenograft tumors, Compound 1 alone or with anti-PD-1 (Example 2); assay type: in vivo, BALB/c mice; conditions: Compound 1 50 mg/kg i.p. qd 5 days/week from day 7; anti-PD-1 sub-effective dose i.p. days 7, 10 and 14; isotype group zero out of nine
Method: The effects of Compound 1, alone or combination with sub-effective doses of the checkpoint inhibitor, anti-PD-1, were assessed on the growth of CT26 xenograft tumors in BALB/c mice. Treatment-naïve tumor-bearing mice (i.e., isotype group) were compared with groups of mice receiving monotherapy of Compound 1 defined in Example 1, mice receiving a sub-effective dose of a checkpoint inhibitor (anti-PD-1 antibody), and mice receiving both Compound 1 and a sub-effective dose of anti-PD-1 antibody.
as §1
At the end of experiments, tumors were also weighed.

[3] = test system: immune cells in the tumor microenvironment of CT26 tumors; assay: Flow cytometry of immune cells in dissociated CT26 tumors (Example 1); assay type: in vivo, BALB/C mice; conditions: 50 mg/kg once daily i.p.; tumors isolated at thirty days post-injection; flow cytometry (FIG. 2)
Method: The tumors were then enzymatically dissociated into a single cell suspensions, stained with fluorophore-tagged antibodies and are analyzed by flow cytometry. Cells were sorted and analyzed for immune markers. […] In turn, it is believed this this allows the innate immune system to more efficiently target tumor cells, which is consistent with the results observed here (i.e., increased activation of T-cells in the tumor microenvironment).

[4] = test system: CT26 murine cancer cells; assay: Growth of CT26 murine colon carcinoma tumors in BALB/C mice (Example 1); assay type: in vivo; conditions: 50 mg/kg once daily i.p. from day 7, after 30 days, vs untreated control (FIG. 1)
Method: Aliquots of cancerous cells are injected into the subscapular space of BALB/C mice to induce colon carcinoma. The tumors are allowed to grow for 7 days, when tumor volume is measured. Once a tumor has formed, drug treatment is initiated (50 mg/kg Compound 1, once daily, i.p. in 0.5% methylcellulose vehicle) and tumor growth is observed and recorded daily. Compounds 1 is shown below:
The mice were sacrificed at thirty days post-injection, and the tumors are isolated from the mice.

Compound: CN1C(=O)c2c(nn(Cc3ccc(-c4cccc(F)n4)cc3)c2Nc2ccccc2)N2C1=N[C@@H]1CCC[C@@H]12 [Compound 1]
- numbers of CD45+ tumor (infiltrating) macrophages [1]: significantly decreased numbers
- numbers of CD45+ tumor (infiltrating) monocytes [1]: significantly decreased numbers
- mice showing tumor clearance (tumor volume smaller than 100 mm^3) [2]: one out of five
- CD8 T-cells in the tumor microenvironment [3]: significant increases
- macrophage presence in the tumor microenvironment [3]: significant decrease
- monocytes in the tumor microenvironment [3]: significant increases
- tumor growth [4]: significantly slowed tumor growth
